Assay results as given in ChEMBL document CHEMBL3352542, “Synthesis, biological evaluation and molecular modeling study of 2-(1,3,4-thiadiazolyl-thio and 4-methyl-thiazolyl-thio)-quinazolin-4-ones as a new class of DHFR inhibitors” (Bioorg Med Chem Lett, 2014).
Active and inactive are the calls of the source. No cut-off for these calls is given here.

How the values were obtained:
[1] = Growth inhibition of human UO31 cells at 10 uM after 48 hrs; type: functional; conditions: UO-31, 48 h, read-out: GI
Candida albicans = experiment: Antimicrobial activity against Candida albicans assessed as inhibition zone at 200 ug/disk after 24 hrs by disc-diffusion method; type: functional; conditions: read-out: IZ
Pseudomonas aeruginosa = experiment: Antimicrobial activity against Pseudomonas aeruginosa assessed as inhibition zone at 200 ug/disk after 24 hrs by disc-diffusion method; type: functional; conditions: read-out: IZ
SK-MEL-5 = experiment: Growth inhibition of human SK-MEL-5 cells at 10 uM after 48 hrs; type: functional; conditions: SK-MEL-5, 48 h, read-out: GI
A498 = experiment: Growth inhibition of human A498 cells at 10 uM after 48 hrs; type: functional; conditions: A498, 48 h, read-out: GI
U-251 = experiment: Growth inhibition of human U251 cells at 10 uM after 48 hrs; type: functional; conditions: U-251, 48 h, read-out: GI
[2] = Growth inhibition of human SF295 cells at 10 uM after 48 hrs; type: functional; conditions: SF-295, 48 h, read-out: GI
786-0 = experiment: Growth inhibition of human 786-0 cells at 10 uM after 48 hrs; type: functional; conditions: 786-0, 48 h, read-out: GI
MCF7 = experiment: Growth inhibition of human MCF7 cells at 10 uM after 48 hrs; type: functional; conditions: MCF7, 48 h, read-out: GI
T47D = experiment: Growth inhibition of human T47D cells at 10 uM after 48 hrs; type: functional; conditions: read-out: GI
Bacillus subtilis [3] = experiment: Antimicrobial activity against Bacillus subtilis assessed as inhibition of visible growth after 24 hrs by disc-diffusion method; type: functional, organism-based
[4] = Growth inhibition of human UACC257 cells at 10 uM after 48 hrs; type: functional; conditions: UACC-257, 48 h, read-out: GI
[5] = Growth inhibition of human HOP92 cells at 10 uM after 48 hrs; type: functional; conditions: HOP-92, 48 h, read-out: GI
[6] = Growth inhibition of human RPMI8226 cells at 10 uM after 48 hrs; type: functional; conditions: RPMI-8226, 48 h, read-out: GI
A549 = experiment: Growth inhibition of human A549 cells at 10 uM after 48 hrs; type: functional; conditions: A549, 48 h, read-out: GI
Staphylococcus aureus [7] = experiment: Antimicrobial activity against Staphylococcus aureus assessed as inhibition zone at 200 ug/disk after 24 hrs by disc-diffusion method; type: functional; conditions: read-out: IZ
HOP-62 = experiment: Growth inhibition of human HOP62 cells at 10 uM after 48 hrs; type: functional; conditions: HOP-62, 48 h, read-out: GI
Escherichia coli [8] = experiment: Antimicrobial activity against Escherichia coli assessed as inhibition of visible growth after 24 hrs by disc-diffusion method; type: functional, organism-based
[9] = Growth inhibition of human HCT15 cells at 10 uM after 48 hrs; type: functional; conditions: HCT-15, 48 h, read-out: GI
[10] = Growth inhibition of human PC3 cells at 10 uM after 48 hrs; type: functional; conditions: PC-3, 48 h, read-out: GI
Bacillus subtilis [11] = experiment: Antimicrobial activity against Bacillus subtilis assessed as inhibition zone at 200 ug/disk after 24 hrs by disc-diffusion method; type: functional; conditions: read-out: IZ
Escherichia coli [12] = experiment: Antimicrobial activity against Escherichia coli assessed as inhibition zone at 200 ug/disk after 24 hrs by disc-diffusion method; type: functional; conditions: read-out: IZ
Dihydrofolate reductase = biological target: T1, Dihydrofolate reductase (Bos taurus, UniProt P00376); experiment: Inhibition of bovine liver DHFR
T1 sequence (P00376 whole entry): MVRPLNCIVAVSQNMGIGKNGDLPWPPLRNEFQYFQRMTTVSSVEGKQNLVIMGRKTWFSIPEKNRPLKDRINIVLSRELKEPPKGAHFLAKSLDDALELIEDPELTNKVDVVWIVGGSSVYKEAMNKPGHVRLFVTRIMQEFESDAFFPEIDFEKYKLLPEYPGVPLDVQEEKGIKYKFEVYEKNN

Staphylococcus aureus [13] = experiment: Antimicrobial activity against Staphylococcus aureus assessed as inhibition of visible growth after 24 hrs by disc-diffusion method; type: functional, organism-based
[14] = Growth inhibition of human Hs 578T cells at 10 uM after 48 hrs; type: functional; conditions: read-out: GI
MDA-MB-435 = experiment: Growth inhibition of human MDA-MB-435 cells at 10 uM after 48 hrs; type: functional; conditions: MDA-MB-435, 48 h, read-out: GI
[15] = Growth inhibition of human HCT116 cells at 10 uM after 48 hrs; type: functional; conditions: HCT-116, 48 h, read-out: GI
CAKI-1 = experiment: Growth inhibition of human CAKI-1 cells at 10 uM after 48 hrs; type: functional; conditions: CAKI-1, 48 h, read-out: GI
HL-60(TB) = experiment: Growth inhibition of human HL-60(TB) cells at 10 uM after 48 hrs; type: functional; conditions: HL-60, 48 h, read-out: GI
[16] = Growth inhibition of human RXF393 cells at 10 uM after 48 hrs; type: functional; conditions: RXF 393, 48 h, read-out: GI
SR = experiment: Growth inhibition of human SR cells at 10 uM after 48 hrs; type: functional; conditions: read-out: GI
[17] = Growth inhibition of human UACC62 cells at 10 uM after 48 hrs; type: functional; conditions: UACC-62, 48 h, read-out: GI
MDA-MB-231 = experiment: Growth inhibition of human MDA-MB-231 cells at 10 uM after 48 hrs; type: functional; conditions: MDA-MB-231, 48 h, read-out: GI
[18] = Growth inhibition of human SF539 cells at 10 uM after 48 hrs; type: functional; conditions: SF-539, 48 h, read-out: GI

Nc1nnc(Sc2nc3ccc(Cl)cc3c(=O)n2-c2ccc(Cl)cc2)s1
inhibition of growth at 10 µM [1]: 24.6% | zone of inhibition at 200 µg/disc (Candida albicans): 8 mm | zone of inhibition at 200 µg/disc (Pseudomonas aeruginosa): 12 mm | inhibition of growth at 10 µM (SK-MEL-5): 10.9% | inhibition of growth at 10 µM (A498): 30.6% | inhibition of growth at 10 µM (U-251): 11% | inhibition of growth at 10 µM [2]: 20.6% | inhibition of growth at 10 µM (786-0): 15.4% | inhibition of growth at 10 µM (MCF7): 12.7% | inhibition of growth at 10 µM (T47D): 29.2% | Activity (Bacillus subtilis [3]): Active | inhibition of growth at 10 µM [4]: 12.3% | inhibition of growth at 10 µM [5]: 53.7% | inhibition of growth at 10 µM [6]: 12.1% | inhibition of growth at 10 µM (A549): 11.1% | zone of inhibition at 200 µg/disc (Staphylococcus aureus [7]): 18 mm | inhibition of growth at 10 µM (HOP-62): 16.7% | Activity (Escherichia coli [8]): Active | inhibition of growth at 10 µM [9]: 12.7% | inhibition of growth at 10 µM [10]: 14.1% | zone of inhibition at 200 µg/disc (Bacillus subtilis [11]): 20 mm | zone of inhibition at 200 µg/disc (Escherichia coli [12]): 16 mm | IC50 (Dihydrofolate reductase): 1 µM | Activity (Staphylococcus aureus [13]): Active | inhibition of growth at 10 µM [14]: 13.3% | inhibition of growth at 10 µM (MDA-MB-435): 10.8%

Cc1ccc(-n2c(Sc3nnc(N)s3)nc3ccc(C)cc3c2=O)cc1
inhibition of growth at 10 µM [1]: 23.2% | zone of inhibition at 200 µg/disc (Candida albicans): 8 mm | zone of inhibition at 200 µg/disc (Pseudomonas aeruginosa): 8 mm | inhibition of growth at 10 µM (A498): 14.2% | inhibition of growth at 10 µM [15]: 11.6% | inhibition of growth at 10 µM [5]: 21.1% | zone of inhibition at 200 µg/disc (Staphylococcus aureus [7]): 8 mm | inhibition of growth at 10 µM (CAKI-1): 10.4% | inhibition of growth at 10 µM (HL-60(TB)): 28.2% | inhibition of growth at 10 µM [16]: 10.5% | inhibition of growth at 10 µM (SR): 32.7% | inhibition of growth at 10 µM [10]: 11.8% | inhibition of growth at 10 µM [17]: 14.8% | zone of inhibition at 200 µg/disc (Bacillus subtilis [11]): 8 mm | zone of inhibition at 200 µg/disc (Escherichia coli [12]): 8 mm | inhibition of growth at 10 µM (MDA-MB-231): 21.9% | IC50 (Dihydrofolate reductase): 8 µM | inhibition of growth at 10 µM [18]: 15.6%
